Experimental data taken from patent publication US9648880B2, “Antifungal agents and uses thereof” (University of Massachusetts, priority 2012, dated 2017).

How the values were obtained:
[1] = system: C. albicans hyphae formation; assay: filamentation assay (hyphal morphogenesis); assay type: cell-based, Candida albicans; details: for formation of hyphae: Spider media, HWP1-RFP reporter (Example 14); for inhibition of hyphal formation and induction of RFP: 12.5 μM, Spider media 16 hours, HWP1-RFP reporter
Source text: Because the ability to interconvert between yeast and hyphal morphologies is usually correlated with pathogenicity (Finkel, 2010), we explored this observation in more detail. First, we assessed the effect of our compounds on the induction of hyphae by “Spider” media (Chauhan, 2009). For this experiment, we used a strain that contains the hyphal-specific HWP1 promoter to the Red Fluorescent Protein (RFP) open reading frame (Ganguly, 2011), which provides a molecular reporter for hyphae formation that we used in addition to visual examination of cell morphology. We initially tested each of the compounds that inhibit adhesion to polystyrene (FIG. 1B), as well as compounds #9, Q1 and Q2 (FIG. 3A), at concentration of 12.5 μM. […] Compounds Q1 and Q2 share a “Scaffold 1” backbone with compounds #4 and #9, but contain a quinoline group (FIG. 3A). Therefore, the compounds with a quinoline group can inhibit hyphae formation, but not adhesion to polystyrene or human cells (FIG. 3). […] Additionally, multiple chemical backbones are able to inhibit hyphae formation, because compound #12 has a “Scaffold 2” backbone (Table 2). To better discriminate the inhibitory compounds, we tested #4, 12 and Q1 at lower concentrations. […] Furthermore, as in the polystyrene adhesion assay (FIG. 8), compound #4 is effective at inhibiting hyphae formation at concentrations >2.5 μM.
Overnight cultures of SC5314 or SGH584 were pregrown in uridine-supplemented SC media at 30° C. to an OD600>13 and diluted 1:10 into prewarmed Spider medium (1% Peptone (Difco), 1% Mannitol (Sigma) and 0.2% K2HPO4 (Sigma) (Chauhan, 2009) in glass tubes and grown for 16 hrs at 37° C. shaking at 200 rpm in the presence or absence of drugs as indicated. DIC and fluorescence images were acquired using a Zeiss Axiovert 200 inverted microscope equipped with a Qicam 12-bit Fast 1394 digital CCD camera (Qimaging). Image acquisition was carried out using Openlab 5 software (Improvison).
Because the ability to interconvert between yeast and hyphal morphologies is usually correlated with pathogenicity, we explored this in more detail, examining induction of hyphae upon carbon starvation (using Spider media). We used a strain that contains the Red Fluorescent Protein (RFP) open reading frame driven by the hyphal-specific HWP1 promoter (Ganguly et al., Eukaryotic Cell 10:1448, 2011), which provides a molecular reporter for hyphae formation in addition to cell morphology. […] Therefore, the shared backbone of these compounds correlates with inhibition of multiple activities.
Hyphal morphogenesis is induced by multiple stimuli that act via multiple signal transduction pathways and is mediated by a complex transcriptional network. […] We detected morphological difference between control and compound #4-treated cultures as early as 60 minutes in 10% serum, and 90 minutes in Spider media.

[2] = system: C. albicans SC5314-GFP biofilm; assay: biofilm formation on silicone elastomers; assay type: cell-based, Candida albicans; details: for biofilm formation, visual inspection: silicone mesh
Protocol: FIGS. 5A-5C. Effect of small molecules on biofilm formation in vitro. FIG. 5A is a series of photographs showing biofilm formation on silicone elastomers. Biofilm assay was performed with SC5314-GFP and edt1^Δ/Δ-GFP and photographed after 60 hrs. Indicated compounds were added at 50 μM. Turbid medium indicates planktonic cells unattached to silicone elastomers when biofilm formation is inhibited. Clear medium with the cell attached to the silicone elastomer indicate establishment of functional biofilm. Each treatment was done in triplicate. FIG. 5B is a graph showing quantitation of turbidity of medium. Media was removed from the wells, vortexed vigorously and the OD at 600 nm was measured in a spectrophotometer. FIG. 5C is a graph showing quantitation of dry weight of biofilm. Dry weight in mg of air-dried silicone elastomers.
Fungal biofilm formation on implanted medical devices is a serious medical problem because these biofilms can lead to life-threatening systemic infections. An established in vitro assay to study device colonization makes use of silicone mesh as a surrogate surface (Nobile, 2006). We tested how the compounds that affected polystyrene adhesion (FIG. 1) would affect biofilm formation by visual inspection of the biofilms formed, by measuring the optical density of the supernatant liquid cultures, and by measuring their dry weights. […] Therefore, compounds #4 and Q1 were effective inhibitors of both hyphal morphogenesis (FIG. 4) and biofilm formation on silicone mesh (FIG. 5).
We adapted a published method (Nobile, 2006, supra). Autoclaved, pre-weighed silicone mesh squares (Bentec, Catalog Number PR72034-04N) were incubated overnight at 37° C. with undiluted bovine serum. Following washing with PBS, the squares were transferred to 12-well plates and incubated with 0.5 OD/ml SC5314-GFP cells in Spider medium (with or without drugs as indicated), for 90 min at 37° C., shaking at 200 rpm. Squares were washed in PBS and transferred to new 12-well plates containing fresh Spider medium with fresh drugs and incubated for 60 hrs in a 37° C. shaker at 200 rpm. The plates were then photographed, the liquid media were collected for A600 nm measurements, and the dry weights of the bound biofilms were measured following drying of the silicone squares in a chemical hood.

C. albicans SC5314 = assay: alamarBlue-based polystyrene adhesion assay; assay type: cell-based, Candida albicans
Source text: We prioritized the candidate compounds by testing the dose-dependence of their effects. Because of the laborious washing required to remove background crystal violet dye staining, we developed adhesion assays using alternative detection reagents. Previous experiments screens have used the vital dye alamarBlue to measure Candida viability (Lafleur, J. Antimicrob Chemother. 66: 820-826, 2011; Youngsaye supra), so we tested this reagent as a way to measure cells remaining adhered after washing. […] The majority of the reordered compounds were effective at reducing Candida adhesion at 50 μM, the concentration originally tested during the screen. […] Although compounds that were still effective at 25 μM were less generally less so at 7.5 μM (FIG. 1C), many candidates still reduced adhesion by >50% at this lower concentration.
Overnight cultures of SC5314 and edt1^−/− cells were grown and plated onto Immulon 2HB 96-well microtiter plates and treated with small molecules as described above. Following incubations, media was decanted and plates were washed twice with 100 μl/well PBS. alamarBlue (Life Technologies) was resuspended to a final concentration of 5% in RPMI buffered with 0.165 M MOPS and then 100 μl was added to each well, followed by further incubation for 2 hours at 37° C. Fluorescence signals at 555Ex/585Em were read using a SpectraMax M5 Plate reader (Molecular Devices).

[3] = system: C. elegans infected with C. albicans; assay: C. elegans pathogenesis assay; assay type: in vivo, Caenorhabditis elegans; details: 12.5 μM
Protocol: We therefore tested whether compound #4 can alter fungal infections in two in vivo settings. First, we performed pathogenesis assays in which nematodes (Caenorhabditis elegans) are infected with C. albicans, resulting in killing of the nematode host (Jain, 2009; Okoli, 2009). We used this assay to test whether compound #4 might have a protective effect, exposing C. elegans to Candida albicans and either DMSO vehicle, the commonly used antifungal drug fluconazole at 12.5 μM, or compound #4 at the same concentration. […] Therefore, consistent with its in vitro activities, compound #4 functions as an antifungal agent in this model infection system.
Three worms in the L3/L4 stage were transferred to each of two NGM agar plates containing E. coli OP50 and grown at 20° C. for four days. On the day of the experiment, worms were washed off the plates with M9 buffer and centrifuged at 900×g for 2 min. The supernatant was removed, and the worms were then resuspended in a bleach solution (1:4 dilution of commercial bleach (5.25%) diluted in 0.25 M sodium hydroxide). The worm suspension was mixed gently by inversion for 3 min, and centrifuged for 2 min at 2,000×g. The pellet containing the eggs was washed with M9 buffer and centrifuged at 2,000×g for 2 min and then resuspended in 500 μl M9 buffer. […]

Row | SMILES | formation of hyphae [1] | inhibition of hyphal formation and induction of RFP [1] | biofilm formation, visual inspection ([2]; 50 μM, 60 hrs) | further results
1 | O=C(NCCC12CC3CC(CC(C3)C1)C2)c1ccc(S(=O)(=O)N2CCOCC2)cc1 [Compound 26] | blocked formation of hyphae | – | – | –
2 | COc1ccc(N2CCN(C(=O)CCCN3C(=O)c4cccc5cccc(c45)C3=O)CC2)cc1 [Compound 27] | blocked formation of hyphae | – | – | biofilm formation on silicone mesh ([2]; Example 14): effective inhibitors of both hyphal morphogenesis and biofilm formation on silicone mesh
3 | CCOc1ccc(NC(=O)c2c(NC(=O)CNCCc3ccccc3)sc3c2CCC3)cc1 [Compound 14] | blocked formation of hyphae | – | – | –
4 | COc1ccc(C(=O)Nc2cccc(Cl)c2)cc1Br [Compound 12] | – | most potently inhibited hyphal formation and induction of RFP | most effectively kept the cells dispersed in the media rather than on the mesh | hyphae formation induced by Spider media ([1]; 5 μM): A few hyphae were observed; hyphae formation induced by Spider media ([1]; 10 μM): completely blocked the hyphae formation; synergy on adhesion upon combining compound #4 and compound #12 (C. albicans SC5314; #4 1.5 μM with #12 4 and 6 μM): did not further reduce adhesion; effect on adhesion of compound alone (C. albicans SC5314; compound #4 1.5 μM, compound #12 4 and 6 μM): partial effects
5 | Cc1ccc(N2CCN(C(=O)c3ccccc3)CC2)cc1Cl [Compound 8] | – | did not block hyphal formation as efficiently | – | –
6 | O=C(c1csc2ccccc12)N1CCN(c2ccc(Cl)c(Cl)c2)CC1 [Compound 3] | – | did not block hyphal formation as efficiently | – | –
7 | Cc1cc(C)n(CC(O)Cn2c3ccc(Cl)cc3c3cc(Cl)ccc32)c(=O)n1 (centres unmarked) [Compound 21] | – | – | most effectively kept the cells dispersed in the media rather than on the mesh | media density (OD 600 nm) ([2]; 50 μM, 60 hrs): more modest than for the other compounds tested
8 | OC(Cn1cncn1)(Cn1cncn1)c1ccc(F)cc1F [fluconazole, reference compound] | – | – | – | lifespan of infected worms [3]: increased the lifespan of the infected worms
9 | Cc1ccc(C(=O)N2CCN(c3ccc(Cl)cc3)CC2)cc1C [Compound 7] | – | did not block hyphal formation as efficiently | most effectively kept the cells dispersed in the media rather than on the mesh | –
